Source: the SangsterLogP compilation

Experiment: method code SF-AS, from DOI: 10.1016/0006-2952(77)90261-1, PMID: 588293
Settings: for logD: pH 7.4

Row | Structure (SMILES) | logD | logP
1 | CCCCCCCCC1(CC)C(=O)NC(=O)NC1=O | 3.08 | 
2 | CCC1(C2=CCCCCC2)C(=O)NC(=O)NC1=O | 2.17 | 
3 | CCCCCCCC1(CC)C(=O)NC(=O)NC1=O | 2.91 | 
4 | C=CCC1(CC(=C)Br)C(=O)NC(=O)NC1=O | 1.37 | 
5 | CCCCCCC1(CC)C(=O)NC(=O)NC1=O | 2.46 | 
6 | C=C(Br)CC1(C(C)CC)C(=O)NC(=O)N(C)C1=O (configuration not stated) | 2.43 | 
7 | C=CCC1(C(C)C)C(=O)NC(=O)NC1=O | 1.22 | 
8 | CCCC1(CC)C(=O)NC(=O)NC1=O | 0.66 | 
9 | CCC1(C2=CC3CCC(C2)C3)C(=O)NC(=O)NC1=O (configuration not stated) | 2.53 | 
10 | CCC1(CC(C)C(C)C)C(=O)NC(=O)NC1=O (configuration not stated) |  | 2.02
11 | C=C(Br)CC1(C(C)CC)C(=O)NC(=O)NC1=O (configuration not stated) | 1.72 | 
12 | C=C(Br)CC1(C(C)C)C(=O)NC(=O)N(C)C1=O (configuration not stated) | 2.11 | 
13 | C=CCC1(CC(C)(C)C)C(=O)NC(=O)NC1=O | 1.71 | 
14 | CCC1(C2=CCCCC2)C(=O)NC(=O)NC1=O | 1.77 | 
15 | CCC1(C2=CC3CCC(C2)C3)C(=O)NC(=O)N(C)C1=O (configuration not stated) | 3.15 | 
16 | CCC1(C2=CCCCC2)C(=O)NC(=O)N(C)C1=O (configuration not stated) | 2.25 | 
17 | C=C(Br)CC1(C(C)C)C(=O)NC(=O)NC1=O | 1.47 | 
18 | C=C(Br)CC1(C(C)CCC)C(=O)NC(=O)NC1=O (configuration not stated) | 2.09 | 
19 | C=CCC1(C(C)CCC)C(=O)NC(=O)NC1=O (configuration not stated) | 1.97 | 
20 | C=CCC1(C2=CCCC2)C(=O)NC(=O)N(C)C1=O (configuration not stated) | 1.89 | 
21 | CCC1(C2=CCCCCC2)C(=O)NC(=O)N(C)C1=O (configuration not stated) | 2.82 | 
22 | C=CCC1(C2C=CCC2)C(=O)NC(=O)NC1=O (configuration not stated) | 1.51 | 
